Test results reported in patent publication US20130309695A1, “METHODS OF DIAGNOSING ASTHMA” (UNIVERSITY OF MANITOBA, priority 2010, published 2013).

B1: IL-4: cytokine used to stimulate HASMC (protein, UniProt P05112 25-153, looked up)
Interleukin-4: HKCDITLQEIIKTLNSLTEQKTLCTELTVTDIFAASKNTTEKETFCRAATVLRQFYSHHEKDTRCLGATAQQFHRHKQLIRFLKRLDRNLWGLAGLNSCPVKEANQSTLENFLERLKTIMREKYSKCSS

Key:
[1] = test system: TNF-α-mediated PTX3 release from HASMC; experiment: Effect of MAPK inhibitors on TNF-α-induced PTX3 release from HASMC (ELISA); format: cell-based, human; details: 10 μM, 1 h pretreatment, then TNF-α 10 ng/ml for 24 h
Description: (§1) Confluent HASMC (passages 2-5) were growth-arrested by FBS deprivation for 48 h in Ham's F-12 medium containing 5 μg/ml human recombinant insulin, 5 μg/ml human transferrin, 5 ng/ml selenium, and antibiotics (100 U/ml penicillin and 100 μg/ml streptomycin). Cells were then stimulated in fresh FBS-free medium containing graded concentration (0.1, 1, 10, and 100 ng/ml) of human TNF-α, IL-4, PTX3 or medium alone. In some experiments, cells were pretreated for 1 h with U-0126 (10 μM), SB-203580 (10 μM), or SP600125 (50 nM) before stimulation for 24 h with TNF-α (10 ng/ml), at 10 ng/ml. Supernatants were collected at 24 and 48 h, centrifuged at 1,200 rpm for 7 min at 4° C. to remove cellular debris, and stored at −80° C. until analysis by ELISA.
(§2) Immunoreactive PTX3 within the supernatants was quantified using ELISA with matched antibodies according to basic laboratory protocols provided by the manufacturer (R&D Systems Inc., Minneapolis, Minn.). PTX3 protein was quantified in reference to serial dilutions of recombinant standards falling within the linear part of the standard curve for each specific PTX3 measured. Each data point represents readings from a minimum of four independent assays wherein each assay was performed in duplicate.
One of the major downstream pathways for TNF-α-induced cell activation is MAPKs, which play an important role in cells for inflammatory response. Growth-arrested HASMC cells were left unstimulated (medium alone) or treated with 10 ng/ml TNF-α for 24 h, with or without pretreatment for 1 h with inhibitors of JNK (SP600125 50 nM), p42/p44 ERK (U-0126, 10 μM) and p38 MAPK (SB-203580, 10 μM).

[2] = test system: PTX3 mRNA expression in human airway smooth muscle cells (HASMC); experiment: PTX3 mRNA expression in cultured HASMC (RT-PCR / real-time RT-PCR); format: cell-based
Description: as §1
Confluent HASMC (passages 2-5) were growth-arrested for 48 h in serum-free medium as described above. Cells were then stimulated in fresh FBS-free medium containing human recombinant TNF-α (10 ng/ml), IL-4, or medium alone for 2, 6, and 24 h. Cells were harvested, and total cellular RNA was extracted using TRIzol® method (Invitrogen Life Technologies, Gaithersburg, Md.). The RNA concentration and purity were assessed with optical density measurements. […] Amplified products were analyzed by DNA gel electrophoresis in 2% agarose and visualized by ethidium bromide staining under ultraviolet illumination. […] The PTX3 level was quantified by scanning densitometry and corrected for GAPDH in the same sample. […]
Total cellular RNA extraction and reverse transcription was performed as described above. […] The amount of extracted DNA was quantified by spectrophotometry and expressed as copy number. […] For real-time quantitative PCR, each reaction contained the following: 1× LightCycler® DNA Master SYBR Green I (Roche), 25 mM MgCl2, 0.5 μM each primer, 0.07 μM TaqStart® Ab (Clontech), and 10 μl (1:10 for PTX3 and 1:80 for GAPDH) of cDNA, in a final volume of 25 μl. […]

[3] = test system: PTX3 release from HASMC; experiment: PTX3 protein release from HASMC into the supernatant (ELISA); format: cell-based, human; details: growth-arrested HASMC, 24 h, 0.1, 1, 10 ng/ml
Description: Confluent HASMC (passages 2-5) were growth-arrested by FBS deprivation for 48 h in Ham's F-12 medium containing 5 μg/ml human recombinant insulin, 5 μg/ml human transferrin, 5 ng/ml selenium, and antibiotics (100 U/ml penicillin and 100 μg/ml streptomycin). Cells were then stimulated in fresh FBS-free medium containing graded concentration (0.1, 1, 10, and 100 ng/ml) of human TNF-α, IL-4, PTX3 or medium alone. In some experiments, cells were pretreated for 1 h with U-0126 (10 μM), SB-203580 (10 μM), or SP600125 (50 nM) before stimulation for 24 h with TNF-α (10 ng/ml), at 10 ng/ml. […]
as §2
Assessments were made of the effects of dosage and exposure time of TNF-α on HASMC. […] For both experiments, HASMC were stimulated with 0.1, 1, 10 or 100 ng/ml TNF-α, or medium alone for 24 h after which, PTX3 was measured by ELISA.

| Molecule | effect on TNF-α-induced PTX3 release [1] | PTX3 release from HASMC [3] | also measured |
| --- | --- | --- | --- |
| C[S+]([O-])c1ccc(-c2nc(-c3ccncc3)c(-c3ccc(F)cc3)[nH]2)cc1 (centres unmarked) [SB-203580, 4-(4-fluorophenyl)-2-(4-methyl-sulfinylphenyl)-5-(4′-pyridyl)-1H-imidazole] | no effect | – | – |
| N#CC(=C(N)Sc1ccccc1N)C(C#N)=C(N)Sc1ccccc1N [U-0126, 1,4-diamino-2,3-dicyano-1,4-bis(2-aminophenylthio)butadiene] | significant inhibition | – | effect on TNF-α-induced PTX3 release ([1]; listed as U0126): abrogate |
| TNF-α | – | induced the release of PTX3 in a dose-dependent manner | fold increase of PTX3 mRNA compared with unstimulated cells ([2]; 10 ng/mL, 6 h, ratio to GAPDH, mean±SD of three experiments): 30.93±11.25 fold; time of peak PTX3 mRNA response ([2]; 10 ng/ml, stimulated 2, 6 and 24 h, real-time RT-PCR): 6 h |
| B1 | – | No significant PTX3 release | effect on PTX3 mRNA expression ([2]; 6 h, data not shown): no significant effect |
